In publication PMC9945865, “Anticancer evaluation of new organometallic ruthenium(II) flavone complexes” (RSC Medicinal Chemistry, 2022):

Assays:
HUVECs = assay: Matrigel endothelial cell tube formation assay (VEGF-mediated); format: cell-based, human; conditions: 12 h; for tube formation inhibition activity: 1 μM
Experimental: In our recent study,[30] the 4′-chlorophenylflavone derivatives 1 and 2 have shown promising antiangiogenic activities in vitro. Herein, the effect of complexation with a ruthenium(II) metal ligand on the antiangiogenic activity of 1 and 2 was evaluated using the Matrigel tube formation assay that assesses many of the main steps involved in the process of angiogenesis. Inhibition of VEGF-mediated tube formation by the tested substrates was observed after 12 h of treatment on HUVECs at 1 μM and 10 μM concentrations. Luteolin is a natural flavone well known for its high antiangiogenic activity both in vitro and in vivo[34] and as such was used in this study as a reference standard. In accordance with reported data, luteolin inhibited the measured elements of tube formation by 30% compared to the positive control.[34,35] […] The ability of Ru(II) organometallic derivatives to target tumour metastasis has been widely reported both in vitro and in vivo.[3,6,9,36] Thus, based on the preliminary antiangiogenic trends observed for our target Ru(II) complexes (1Ru and 2Ru) and their parent flavones (1 and 2), we further investigated their antiproliferative and antimetastatic potential on the estrogen receptor positive breast cancer cell line (MCF-7) and the more aggressive triple negative cell line (MDA-MB-231).
HUVECs were cultured until confluency and then serum starved (0.1% serum) for 24 h. The tube formation assay followed the reported assay.[56] Briefly, 96 well plates were coated with 50 μL of Corning™ Matrigel™ GFR Membrane Matrix at 4 °C and incubated at 37 °C for 1–2 h to solidify. Serum starved HUVECs were seeded on the solidified Matrigel at 3 × 10^5 cells per mL and treated with medium containing VEGF (10 ng mL^−1) and either luteolin or one of the synthesised derivatives (at 1 μM or 10 μM). Plates were incubated for 12 h and photos covering the whole well area were taken using 4× magnification power of an inverted light microscope. Number of junctions, number and length of segments and master segments were quantified from the taken Images via the Angiogenesis Analyzer plugin[57] in ImageJ software.[58] […] Data was represented as a ratio to the positive control (VEGF enriched).

MCF-7 = assay: Cell viability, 72 h MTT assay; format: cell-based, human; conditions: MCF-7, 72 h MTT, mean ± SEM, n = 3
Experimental: The unique chemical features and coordination geometries of metal ions can add several additional binding interactions that can potentially enhance their anticancer properties for example by allowing intercalation and exploitation of their redox potential.[24] […] In that context, coordination of derivative (2) with a Ru(II) metal ligand is a promising approach to further improve its antiproliferative activity.
MCF-7 and MDA-MB-231 cells were seeded at a density of 4 × 10^4 and 2 × 10^4 cells per mL, respectively, into 96 well plates and incubated to allow the attachment for 24 h. After 24 h, the cells were treated with one of the synthesised derivatives at range of concentrations (0–100 μM) for 67 h. After 67 h, 20 μL of MTT (5 mg mL^−1) solution in PBS was added to each well and the cells were incubated for 5 h. The purple crystals formed were dissolved in 100 μL of DMSO and the plates were read at 560 nm using a SPECTRA max UV spectrometer (Bio-Rad). The data represented are the mean of the three individual experiments.

VEGF i-motif DNA = assay: I-motif DNA UV melting (thermal stability); format: binding, human; conditions: for Tm: VEGF i-motif with flavone at 1 : 1 ratio, 295 nm, free DNA 46 °C; for ΔTm: ΔTm = Tm (DNA-flavone) − Tm (DNA)
Source text: (§1) The effect of this set of flavones on VEGF and c-myc was further evaluated via thermal stability measurements. Stabilizing/destabilizing the promotor i-motif structures is often reported to regulate expression of the corresponding genes, which for VEGF and c-myc could have detrimental effects on cancer growth and propagation.[48] As observed in Fig. 9, effects of the test flavones on the thermal stability of the VEGF and c-myc i-motif sequences were generally marginal and in agreement with λmax chromophoric shifts. […] Compound 1 destabilized VEGF i-motif in contrast to stabilizing the c-myc one. This mirrored the trend of a higher chromophoric shift observed for flavone 1 with VEGF i-motif sequence that also differed in pattern (hypochromic) from the shift witnessed with the c-myc sequence (hyperchromic). These findings could indicate higher selectivity of the 4-oxo derivative (1) towards VEGF i-motif based on an intercalative binding mode especially that hypochromic shifts are reported with DNA intercalation.[49,50] […] In this regard, the highest i-motif activity seen for the parent flavonoids was switched from VEGF to c-myc with compound 1 and vice versa with compound 2 upon Ru chelation. This emphasizes the key role of the interplay between the substitution at position 4 and metal complexation on the interaction with biological targets.
(§2) UV-visible absorbance measurements and DNA UV melting studies were performed on a Cary 300 C (Varian USA) UV-visible spectrophotometer. VEGF and c-myc i-motif DNA (5′-3′ sequences ([…]) and ([…]), respectively) were purchased from Sigma-Aldrich (Gillingham, UK) and used without further purification. Na cacodylate buffer (20 mM, pH 5.5) was used for both i-motifs. DNA concentrations were determined by measuring the absorbance at 260 nm after melting using the molar extinction coefficient supplied by the manufacturer. VEGF and c-myc i-motifs were prepared for experiments by diluting with buffer solution, annealed with or without the flavonoid at 95 °C for 5 min then gently cooled to room temperature. The stock solutions of the test compounds (20 mM) were prepared in 100% sterile DMSO. These stocks were then appropriately diluted with HPLC grade water and DMSO levels were maintained below 0.1% in the test concentrations.
(§3) UV-visible absorbance measurements and UV melting studies of either free i-motifs (VEGF or c-myc), free flavone (1, 1Ru, 2 or 2Ru) or both i-motif DNA and flavone (2 μM: 2 μM) were recorded using 1.0 cm matched quartz cuvettes. First spectra were recorded in the range of 200–500 nm to determine the relevant wavelength range were no peaks were observed above 320 nm. […] UV-visible absorbance was measured at 25 °C while melting curves were collected at a heating rate of 1 °C min^−1 from 20 to 90 °C. Tm was calculated by non-linear fitting of the sigmoidal curve obtained at 295 nm.

c-myc i-motif DNA = assay: I-motif DNA UV melting (thermal stability); format: binding, human; conditions: for Tm: c-myc i-motif with flavone at 1 : 1 ratio, 295 nm, free DNA 45 °C; for ΔTm: c-myc i-motif, 1 : 1 ratio, ΔTm = Tm (DNA-flavone) − Tm (DNA)
Source text: as §1, §2, §3

[1] = Temperature dependent UV-vis stability of the complexes; format: physicochemical; design: key to Δλ260: change in absorbance at 260 nm (absorbance units); conditions: for λ260 (absorbance at 260 nm) / UV-vis stability profile: 0.1% DMSO/ddH2O; for UV-vis stability profile: temperature increments 20-80 °C, 6 h time interval
Experimental: Wavelength (nm) Wavelength (nm)
Figure 3. Temperature dependant UV-VIS spectra of (A) 1Ru and (B) 2Ru in 0.1%DMSO/ddH2O solution recorded
over a 6 h time interval.
Table 1. λ260a and Δ λ260b of complexes 1Ru and 2Ru at 20 °C – 80 °C

Row | Compound | tube formation inhibition activity (HUVECs) | reduction in the number of junctions (HUVECs; 10 μM, p < 0.01) [%] | reduction in number and length of master segments (HUVECs; 10 μM, p < 0.05) [%] | IC50 (MCF-7) [µM] | Tm (VEGF i-motif DNA) [°C] | decrease in the i-motif's transition temperature (Tm) (VEGF i-motif DNA; VEGF i-motif, 1 : 1 ratio) [°C] | ΔTm (VEGF i-motif DNA; VEGF i-motif, 1 : 1 ratio) [°C] | Tm (c-myc i-motif DNA) [°C] | ΔTm (c-myc i-motif DNA) [°C] | Δλ260 ([1]; 20 °C (baseline)) | λ260 (absorbance at 260 nm) ([1]; 20 °C) | Δλ260 ([1]; 40 °C minus 20 °C) | λ260 (absorbance at 260 nm) ([1]; 40 °C) | Δλ260 ([1]; 60 °C minus 20 °C) | λ260 (absorbance at 260 nm) ([1]; 60 °C) | Δλ260 ([1]; 80 °C minus 20 °C) | λ260 (absorbance at 260 nm) ([1]; 80 °C) | UV-vis stability profile [1] | overall tube formation inhibition (HUVECs; 10 μM, insignificant (p > 0.05)) [%]
1 | Cc1ccc(C(C)C)cc1.[Cl-].[O-]c1cc(O)cc2oc(-c3ccc(Cl)cc3)cc(=S)c12.[Ru+2] [2Ru, chlorido [(5-oxo-κO)-7-hydroxy-2-(4′-chlorophenyl)-4H-chromen-4-thionato-κO] (η^6-p-cymene)ruthenium(II)] | total loss of their parents' tube formation inhibition activity | 40 | 35 | > 100 | 42 | 4 | −4 | 44 | −1 | 0 | 0.03108 | 0.0013 | 0.02973 | 0.0021 | 0.02902 | 0.0028 | 0.02832 | sufficient stability | 
2 | Cc1ccc(C(C)C)cc1.O=c1cc(-c2ccc(Cl)cc2)oc2cc(O)cc([O-])c12.[Cl-].[Ru+2] [1Ru, chlorido [(5-oxo-κO)-7-hydroxy-2-(4′-chlorophenyl)-4H-chromen-4-onato-κO] (η^6-p-cymene)ruthenium(II)] | total loss of their parents' tube formation inhibition activity |  |  | 66.2 ± 5 | 47 |  | 1 | 48 | 3 | 0 | 0.0435 | 0.00072 | 0.04422 | 0.00174 | 0.04525 | 0.00388 | 0.04738 | sufficient stability | 22
